Results published in PMC8989888, “Development of optimized drug-like small molecule inhibitors of the SARS-CoV-2 3CL protease for treatment of COVID-19” (Nature Communications, 2022).
Values joined by “and” are separate entries in the source; they are usually repeats but may differ in a detail not shown here. Equal values may be shown once. “Also recorded” adds a separate entry of the source. Read-outs that look alike come from different tables or passages of the source.

Experiments:
[1] = system: Influenza A H1N1 (strain: California/07/2009); assay: microbe, parasite or virus in culture; format: cell-based; conditions: for EC50: Influenza A virus, H1N1, MDCK, read-out: Influenza A (H1N1) MDCK EC50
[2] = target: Factor Xa (Homo sapiens, UniProt P00742); assay: biochemical
Factor Xa, sequence (P00742 235-488): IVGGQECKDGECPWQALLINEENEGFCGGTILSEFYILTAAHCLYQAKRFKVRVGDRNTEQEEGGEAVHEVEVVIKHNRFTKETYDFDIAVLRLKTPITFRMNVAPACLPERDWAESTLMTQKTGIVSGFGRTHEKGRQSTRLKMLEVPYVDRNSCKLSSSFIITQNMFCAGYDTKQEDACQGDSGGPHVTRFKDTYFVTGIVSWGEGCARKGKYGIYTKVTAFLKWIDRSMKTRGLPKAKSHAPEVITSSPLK
Factor Xa, sequence (P00742 41-179): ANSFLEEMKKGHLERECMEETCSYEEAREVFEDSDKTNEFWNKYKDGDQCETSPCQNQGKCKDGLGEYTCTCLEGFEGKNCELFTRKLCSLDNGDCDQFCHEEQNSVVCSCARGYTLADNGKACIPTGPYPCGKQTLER

[3] = target: T1, Cathepsin L (Homo sapiens, UniProt P07711); assay: Protease selectivity panel: Cathepsin L; format: biochemical
T1 construct: Human liver; from tissue; host or cells: human liver
T1 sequence (P07711 114-333): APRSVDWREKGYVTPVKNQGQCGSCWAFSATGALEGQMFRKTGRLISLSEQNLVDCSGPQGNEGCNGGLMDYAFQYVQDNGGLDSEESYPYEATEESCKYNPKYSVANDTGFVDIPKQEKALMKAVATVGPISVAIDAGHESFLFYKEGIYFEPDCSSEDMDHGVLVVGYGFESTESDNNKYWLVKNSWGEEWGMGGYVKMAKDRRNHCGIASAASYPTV

[4] = target: Cathepsin S (Homo sapiens, UniProt P25774); assay: Protease selectivity panel: Cathepsin S
Cathepsin S, sequence (P25774 115-331): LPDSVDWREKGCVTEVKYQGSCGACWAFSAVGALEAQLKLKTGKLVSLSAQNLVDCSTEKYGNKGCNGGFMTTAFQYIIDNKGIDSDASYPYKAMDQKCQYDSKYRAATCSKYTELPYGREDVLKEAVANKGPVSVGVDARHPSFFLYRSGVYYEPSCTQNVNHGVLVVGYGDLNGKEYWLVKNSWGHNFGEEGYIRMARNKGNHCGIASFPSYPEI

[5] = system: SARS-CoV-2; assay: microbe, parasite or virus in culture; format: cell-based
[6] = target: Elastase (Homo sapiens, UniProt P08246); assay: biochemical
Elastase, sequence (P08246 30-267): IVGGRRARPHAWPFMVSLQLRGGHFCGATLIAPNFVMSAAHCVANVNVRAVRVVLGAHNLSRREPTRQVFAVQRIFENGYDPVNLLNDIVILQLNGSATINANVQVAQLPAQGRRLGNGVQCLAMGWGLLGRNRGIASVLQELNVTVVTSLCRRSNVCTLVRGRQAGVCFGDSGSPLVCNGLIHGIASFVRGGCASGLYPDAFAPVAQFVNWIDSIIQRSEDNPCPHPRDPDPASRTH

[7] = system: Human coronavirus beta (strain: OC43); assay: organism not typed; format: cell-based, HCoV-OC43; conditions: Huh-7, read-out: EC50, human coronavirus OC43
[8] = target: Cathepsin K (Homo sapiens, UniProt P43235); assay: Protease selectivity panel: Cathepsin K
Cathepsin K, sequence (P43235 115-329): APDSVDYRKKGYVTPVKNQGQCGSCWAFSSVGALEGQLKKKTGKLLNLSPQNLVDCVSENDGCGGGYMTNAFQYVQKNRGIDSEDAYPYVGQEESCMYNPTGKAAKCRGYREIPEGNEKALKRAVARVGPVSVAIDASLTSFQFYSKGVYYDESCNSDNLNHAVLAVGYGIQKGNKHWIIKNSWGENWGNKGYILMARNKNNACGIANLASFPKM

[9] = target: TMPRSS2 (Homo sapiens, UniProt O15393); assay: biochemical
TMPRSS2, sequence (O15393 106-492): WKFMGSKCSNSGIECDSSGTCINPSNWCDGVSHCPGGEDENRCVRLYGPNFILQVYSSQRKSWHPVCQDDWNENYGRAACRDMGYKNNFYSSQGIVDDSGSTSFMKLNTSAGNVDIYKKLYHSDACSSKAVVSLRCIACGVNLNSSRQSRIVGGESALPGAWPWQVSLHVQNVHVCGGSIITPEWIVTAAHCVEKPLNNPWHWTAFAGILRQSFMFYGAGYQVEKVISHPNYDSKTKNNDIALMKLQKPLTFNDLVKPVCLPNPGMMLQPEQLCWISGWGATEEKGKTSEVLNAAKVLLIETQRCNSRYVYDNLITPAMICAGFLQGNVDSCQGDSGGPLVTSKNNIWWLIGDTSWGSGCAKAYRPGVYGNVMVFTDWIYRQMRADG

[10] = target: SARS-CoV-2; assay: cell-based
[11] = system: Human coronavirus alpha (strain: 229E); assay: organism not typed; format: cell-based, HCoV-229E
[12] = target: T2, SARS-CoV-2 3CL protease (Severe acute respiratory syndrome coronavirus 2, UniProt P0DTD1); assay: biochemical; conditions: for IC50: read-out: SARS-CoV-2 3CLpro IC50
[13] = target: PLpro (Severe acute respiratory syndrome coronavirus 2, UniProt P0DTD1); assay: Protease selectivity panel: PLpro; format: biochemical; conditions: SARS-CoV-2 recombinant
[14] = target: ACE2 (Homo sapiens, UniProt Q9BYF1); assay: biochemical
ACE2, sequence (Q9BYF1 18-740): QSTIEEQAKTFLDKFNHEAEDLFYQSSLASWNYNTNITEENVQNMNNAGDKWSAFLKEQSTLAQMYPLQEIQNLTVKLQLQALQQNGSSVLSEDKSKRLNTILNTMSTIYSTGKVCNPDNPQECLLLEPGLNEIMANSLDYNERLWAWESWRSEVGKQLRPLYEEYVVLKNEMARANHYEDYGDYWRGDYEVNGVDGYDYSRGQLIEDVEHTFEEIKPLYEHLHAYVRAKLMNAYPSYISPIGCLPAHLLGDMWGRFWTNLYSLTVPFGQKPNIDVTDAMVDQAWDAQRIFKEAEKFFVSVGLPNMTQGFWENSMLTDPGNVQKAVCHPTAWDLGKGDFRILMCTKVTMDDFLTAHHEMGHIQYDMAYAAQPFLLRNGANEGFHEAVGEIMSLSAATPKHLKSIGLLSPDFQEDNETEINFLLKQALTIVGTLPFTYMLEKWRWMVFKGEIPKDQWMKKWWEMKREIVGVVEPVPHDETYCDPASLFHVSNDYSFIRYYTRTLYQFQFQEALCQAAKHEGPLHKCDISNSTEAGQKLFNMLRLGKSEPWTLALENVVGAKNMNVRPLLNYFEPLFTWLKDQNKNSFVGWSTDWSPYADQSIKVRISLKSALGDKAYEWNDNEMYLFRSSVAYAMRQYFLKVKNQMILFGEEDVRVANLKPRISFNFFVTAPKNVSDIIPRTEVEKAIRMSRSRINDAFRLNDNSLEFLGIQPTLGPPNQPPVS

[15] = target: ACE1 (Homo sapiens, UniProt P12821); assay: biochemical
ACE1, sequence (P12821 30-1261): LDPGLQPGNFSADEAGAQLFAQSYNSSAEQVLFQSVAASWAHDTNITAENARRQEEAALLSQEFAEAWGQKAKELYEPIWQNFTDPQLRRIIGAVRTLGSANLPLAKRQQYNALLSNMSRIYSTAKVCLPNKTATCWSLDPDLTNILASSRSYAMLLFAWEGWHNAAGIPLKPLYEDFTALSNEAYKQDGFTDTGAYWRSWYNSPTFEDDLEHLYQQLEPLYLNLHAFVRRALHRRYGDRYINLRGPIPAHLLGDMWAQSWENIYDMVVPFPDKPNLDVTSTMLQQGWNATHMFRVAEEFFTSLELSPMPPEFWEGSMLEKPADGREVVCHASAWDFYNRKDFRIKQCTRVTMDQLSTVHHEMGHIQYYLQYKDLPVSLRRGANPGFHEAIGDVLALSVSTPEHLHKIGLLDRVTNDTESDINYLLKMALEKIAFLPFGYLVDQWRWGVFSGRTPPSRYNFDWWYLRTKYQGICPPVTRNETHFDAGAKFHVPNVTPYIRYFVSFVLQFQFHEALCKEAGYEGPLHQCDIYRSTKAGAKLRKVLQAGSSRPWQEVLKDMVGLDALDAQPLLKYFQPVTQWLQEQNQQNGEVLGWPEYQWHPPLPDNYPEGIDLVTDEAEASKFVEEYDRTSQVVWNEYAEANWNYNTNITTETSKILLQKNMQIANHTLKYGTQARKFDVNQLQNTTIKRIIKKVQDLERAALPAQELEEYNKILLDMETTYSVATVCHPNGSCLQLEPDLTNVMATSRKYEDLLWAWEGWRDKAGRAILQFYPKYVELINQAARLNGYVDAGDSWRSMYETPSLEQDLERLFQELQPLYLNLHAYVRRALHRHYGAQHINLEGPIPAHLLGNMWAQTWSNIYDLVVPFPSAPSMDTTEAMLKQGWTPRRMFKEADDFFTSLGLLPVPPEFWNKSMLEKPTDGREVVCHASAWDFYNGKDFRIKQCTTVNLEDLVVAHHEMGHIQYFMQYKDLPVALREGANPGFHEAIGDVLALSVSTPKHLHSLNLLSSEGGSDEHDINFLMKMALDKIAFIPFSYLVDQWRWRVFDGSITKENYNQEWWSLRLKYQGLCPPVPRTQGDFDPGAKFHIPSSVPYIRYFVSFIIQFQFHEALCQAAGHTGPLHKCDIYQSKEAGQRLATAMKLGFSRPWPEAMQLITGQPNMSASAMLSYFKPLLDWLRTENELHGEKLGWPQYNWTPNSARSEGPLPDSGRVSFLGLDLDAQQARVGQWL

[16] = in vitro
[17] = system: SARS-CoV-2; assay: microbe, parasite or virus in culture; format: cell-based; conditions: for EC50: Severe acute respiratory syndrome coronavirus 2, 24 h, read-out: SARS-CoV-2 Huh-7ACE2 EC50
[18] = system: SARS-CoV-2; assay: microbe, parasite or virus in culture; format: cell-based; conditions: Severe acute respiratory syndrome coronavirus 2, read-out: SARS-CoV-2 EC50
[19] = target: Thrombin a (Homo sapiens, UniProt P00734); assay: biochemical
[20] = target: Trypsin (Bos taurus, UniProt P00760); assay: Protease selectivity panel: Trypsin; format: biochemical; conditions: Bovine pancreas
Trypsin, sequence (P00760 24-246): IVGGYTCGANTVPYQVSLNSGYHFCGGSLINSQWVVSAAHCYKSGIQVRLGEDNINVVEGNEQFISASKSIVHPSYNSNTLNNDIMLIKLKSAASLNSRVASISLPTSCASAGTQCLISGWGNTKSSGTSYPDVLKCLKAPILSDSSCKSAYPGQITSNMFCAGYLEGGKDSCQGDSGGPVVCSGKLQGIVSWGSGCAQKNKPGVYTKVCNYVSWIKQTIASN

[21] = target: T2, SARS-CoV-2 3CL protease; assay: biochemical; conditions: for kinact/KI: read-out: SARS-CoV-2 3CLpro kinact/KI
[22] = system: SARS-CoV-2; assay: microbe, parasite or virus in culture; conditions: Severe acute respiratory syndrome coronavirus 2, Caco-2, 72 h, read-out: SARS-CoV-2 Caco-2 EC90
[23] = target: Caspase 8 (Homo sapiens, UniProt Q14790); assay: biochemical
Caspase 8, sequence (Q14790 217-479): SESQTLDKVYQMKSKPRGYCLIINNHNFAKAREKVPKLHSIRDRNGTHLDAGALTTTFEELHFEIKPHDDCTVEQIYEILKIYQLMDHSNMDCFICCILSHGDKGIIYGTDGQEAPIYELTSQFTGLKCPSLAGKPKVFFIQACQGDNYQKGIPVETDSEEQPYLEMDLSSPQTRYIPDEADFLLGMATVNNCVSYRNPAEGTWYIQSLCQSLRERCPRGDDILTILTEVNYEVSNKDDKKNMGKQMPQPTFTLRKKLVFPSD

[24] = target: Urokinase (Homo sapiens, UniProt P00749); assay: biochemical
[25] = system: SARS coronavirus (strain: Urbani); assay: organism not typed; format: cell-based, SARS-CoV
[26] = target: Cathepsin B (Homo sapiens, UniProt P07858); assay: biochemical
[27] = target: MMP 1 (Homo sapiens, UniProt P03956); assay: biochemical
MMP 1, sequence (P03956 100-268): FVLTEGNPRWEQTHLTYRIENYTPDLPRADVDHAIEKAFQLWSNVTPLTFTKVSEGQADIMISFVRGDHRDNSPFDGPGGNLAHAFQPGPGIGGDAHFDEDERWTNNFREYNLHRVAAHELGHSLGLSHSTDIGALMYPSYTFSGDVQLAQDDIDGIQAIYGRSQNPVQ

[28] = target: Furin (Homo sapiens, UniProt P09958); assay: biochemical
Furin, sequence (P09958 108-715): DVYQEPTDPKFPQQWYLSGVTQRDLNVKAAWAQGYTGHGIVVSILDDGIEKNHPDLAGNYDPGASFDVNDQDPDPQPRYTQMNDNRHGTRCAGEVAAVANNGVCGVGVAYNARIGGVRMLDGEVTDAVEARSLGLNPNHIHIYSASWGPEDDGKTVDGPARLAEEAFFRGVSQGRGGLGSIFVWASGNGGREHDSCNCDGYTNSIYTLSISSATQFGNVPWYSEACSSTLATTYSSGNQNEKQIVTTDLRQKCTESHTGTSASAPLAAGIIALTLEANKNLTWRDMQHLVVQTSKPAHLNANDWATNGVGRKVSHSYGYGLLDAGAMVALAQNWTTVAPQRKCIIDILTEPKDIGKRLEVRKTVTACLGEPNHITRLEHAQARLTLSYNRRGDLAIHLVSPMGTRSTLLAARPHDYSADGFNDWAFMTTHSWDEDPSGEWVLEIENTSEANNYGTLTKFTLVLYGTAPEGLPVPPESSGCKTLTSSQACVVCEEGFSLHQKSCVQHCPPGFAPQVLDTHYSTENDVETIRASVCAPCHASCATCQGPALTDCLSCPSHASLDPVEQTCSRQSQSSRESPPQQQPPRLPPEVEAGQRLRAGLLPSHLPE

[29] = mouse, in vivo, po
[30] = system: MERS Coronavirus (strain: EMC); assay: microbe, parasite or virus in culture; format: cell-based, MERS-CoV
[31] = In vivo safety study of NK01-63 (body weight); conditions: C57BL/6 mice, 20 mg/kg IP or PO once per day, 14 days, vs vehicle
[32] = both, C57BL/6, mouse, in vivo
[33] = target: T1, Cathepsin L; conditions: read-out: IC50 on human cathepsin L; cited from earlier work
[34] = system: human chymotrypsin; assay: Chymotrypsin activity assay (Panc-1 cell lysate); format: biochemical
[35] = in vitro; conditions: human, plasma
[36] = in vitro; conditions: human, microsomes, pH 7.4
[37] = in vitro; conditions: CD-1, mouse, plasma
[38] = in vitro; conditions: CD-1, mouse, microsomes, pH 7.4
[39] = physchem; conditions: aqueous buffer, kinetic from dmso stock
[40] = Human liver, substrate 1 (Z-FR-AMC), […] Cathepsin L, read-out: IC50
[41] = Human liver, substrate 2 (MCA-PLGL-Dap(Dnp)-AR-NH2), 0.5 nM Cathepsin L, read-out: IC50
[42] = read-out: IC50 on human cathepsin L
[43] = Severe acute respiratory syndrome coronavirus 2, Vero C1008, read-out: SARS-CoV-2 Vero E6 EC50
[44] = Huh-7, read-out: EC50, human coronavirus 229E
[45] = Concentration of inhibitor (nM) 0.19382
[46] = Concentration of inhibitor (nM) 0.49485
[47] = Concentration of inhibitor (nM) 0.79588
[48] = Concentration of inhibitor (nM) 1.09691
[49] = Concentration of inhibitor (nM) 1.39794
[50] = Concentration of inhibitor (nM) 1.69897
[51] = Concentration of inhibitor (nM) 2.30103
[52] = Concentration of inhibitor (nM) 2.60206
[53] = Concentration of inhibitor (nM) -0.10721
[54] = Concentration of inhibitor (nM) -0.40824
[55] = Vero 76, read-out: SARS-CoV Vero 76 EC50
[56] = read-out: SARS-CoV Vero 76 EC50

## CC(C)C[C@H](NC(=O)OCc1ccccc1Cl)C(=O)N[C@@H](C[C@@H]1CCNC1=O)C(O)S(=O)(=O)O (stereo partly drawn) [EB54]
[1]
  effect on replication of Influenza H1N1 (in words): no effect was observed
  EC50: > 100 µM
[2]
  IC50: > 100 µM
[3]; [40]
  IC50: 1 nM
[3]; [41]
  IC50: 6 nM
[3]; [42]
  IC50: 1 nM
[4]
  IC50: 6 nM
[5]; [43]
  EC50: 2 µM
[6]
  IC50: > 100 µM
[7]
  EC50: < 100 nM
[8]
  IC50: 20 nM
[9]
  IC50: > 100 µM
[10]
  EC50: 1200 nM
[11]; [44]
  EC50: < 100 nM
[12]; 20 nM protease
  IC50: 29 nM
[12]; [45]
  normalized activity, dose-response curve (Figure S16): 97.3415 and 94.0287
[12]; [46]
  normalized activity, dose-response curve (Figure S16): 94.642 and 94.4552
[12]; [47]
  normalized activity, dose-response curve (Figure S16): 92.0244 and 86.0411
[12]; [48]
  normalized activity, dose-response curve (Figure S16): 76.1141 and 67.8169
[12]; [49]
  normalized activity, dose-response curve (Figure S16): 59.5493 and 51.609
[12]; [50]
  normalized activity, dose-response curve (Figure S16): 35.2953 and 26.9095
[12]; [51]
  normalized activity, dose-response curve (Figure S16): 1.552 and 1.745
[12]; [52]
  normalized activity, dose-response curve (Figure S16): 1.143 and 0.9691
[12]; [53]
  normalized activity, dose-response curve (Figure S16): 100.286 and 100.194
[12]; [54]
  normalized activity, dose-response curve (Figure S16): 100
[13]
  IC50: > 100 µM
[14]
  IC50: > 100 µM
[15]
  IC50: > 100 µM
[16]
  CC50: > 100 µM
[17]
  inhibition of SARS-CoV-2 (Figure s17b dose-response, replicate values): 99.8698 and 98.0961 and 101.644 and 87.6327 and 101.522 and 73.7431 and 78.1084 and 77.7143 and 78.5024 and 57.3714 and 60.2928 and 54.45 and 31.9222 and 32.9312 and 30.9133 and 24.3408 and 28.9565 and 19.7251 and 10.4228 and 9.535 and 11.3102
  EC50: 5 nM
[18]
  EC50: 28 nM
[19]
  IC50: > 100 µM
[20]
  IC50: > 100 µM
[21]
  observed inactivation rate vs compound concentration (Figure S19, replicate values): 0.0534 and -0.00333 and 0.0463 and 0.0575 and 0.0117 and 0.0408 and 0.0199 and 0.0198 and 0.0352 and 0.0468 and 0.0351 and 0.0076
  kinact/KI: 88300 M⁻¹ s⁻¹
[22]
  EC90: 190 nM
[23]
  IC50: 52 µM
[24]
  IC50: > 100 µM
[25]; [55]
  EC50: < 3000 nM
[25]; [56]
  EC50: 2400 nM
[26]
  IC50: 350 nM
[27]
  IC50: > 100 µM
[28]
  IC50: > 100 µM

## CC(C)C[C@H](NC(=O)OCc1cccc(C(F)(F)F)c1)C(=O)N[C@@H](C[C@@H]1CCNC1=O)C(O)S(=O)(=O)O (stereo partly drawn) [NK01-63]
[1]
  effect on replication of Influenza H1N1 (in words): no effect was observed
  EC50: > 100 µM
[2]
  IC50: > 100 µM
[3]; [40]
  IC50: 6 nM
[3]; [41]
  IC50: 170 nM
[3]; [42]
  IC50: 6 nM
[4]
  IC50: 30 nM
[6]
  IC50: > 100 µM
[7]
  EC50: < 100 nM
[8]
  IC50: 40 nM
[9]
  IC50: > 100 µM
[11]; [44]
  EC50: < 100 nM
[11]; Huh-7, read-out: HCoV-229E Huh-7 EC50
  EC50: 170 nM
[12]; 20 nM protease
  IC50: 16 nM
[12]; [45]
  normalized activity, dose-response curve (Figure S16): 93.111 and 89.2676
[12]; [46]
  normalized activity, dose-response curve (Figure S16): 89.4126 and 81.5809
[12]; [47]
  normalized activity, dose-response curve (Figure S16): 77.0123 and 75.7796
[12]; [48]
  normalized activity, dose-response curve (Figure S16): 63.0167 and 61.2038
[12]; [49]
  normalized activity, dose-response curve (Figure S16): 43.8724 and 49.3111
[12]; [50]
  normalized activity, dose-response curve (Figure S16): 23.8579 and 30.4568
[12]; Concentration of inhibitor (nM) 2
  normalized activity, dose-response curve (Figure S16): 10.3698 and 13.7056
[12]; [51]
  normalized activity, dose-response curve (Figure S16): 8.412 and 10.6599
[12]; [52]
  normalized activity, dose-response curve (Figure S16): 5.004 and 8.702
[12]; [53]
  normalized activity, dose-response curve (Figure S16): 91.5881 and 97.1719
[12]; [54]
  normalized activity, dose-response curve (Figure S16): 100 and 96.1566
[12]; Supplementary Table 2
  IC50: 6 nM
[13]
  IC50: > 100 µM
[29]
  Body weight relative to day 0 (Figure 6A): 100
[30]; Middle East respiratory syndrome-related coronavirus, Vero 76, read-out: MERS-CoV Vero 76 EC50
  EC50: < 1000 nM
[30]; read-out: MERS-CoV Vero 76 EC50
  EC50: 820 nM
[14]
  IC50: > 100 µM
[31]
  body weight change / in vivo toxicity: no in vivo toxicity via either route of administration; also recorded: No significant change in body weight
[15]
  IC50: > 100 µM
[16]
  CC50: > 100 µM
[17]
  inhibition of SARS-CoV-2 (Figure s17b dose-response, replicate values): 85.8805 and 70.4035 and 120.64 and 101.121 and 104.666 and 80.4107 and 75.7397 and 52.4625 and 52.0629 and 53.1789 and 26.443 and 29.7439 and 43.7589 and 41.2695 and 18.2065 and 24.2009 and 38.2936 and 12.6905 and -1.598 and 19.9884 and -12.0156
  EC50: 6 nM
[18]
  EC50: 146 nM
[19]
  IC50: > 100 µM
[20]
  IC50: > 100 µM
[21]
  observed inactivation rate vs compound concentration (Figure S19, replicate values): 0.0289 and 0.04017 and 0.02561 and 0.0288 and 0.05998 and 0.02398 and 0.0512 and 0.02223 and 0.03571 and 0.0324 and 0.05689 and 0.02237 and 0.0081 and 0.01635 and 0.01687
  kinact/KI: 73300 M⁻¹ s⁻¹
[22]
  EC90: 81 nM
[23]
  IC50: 18 µM
2 mg/ml (3.5 mM) in water
  appearance of dosing solution in water: the solution was clear
[24]
  IC50: > 100 µM
[25]; [55]
  EC50: < 3000 nM
[25]; [56]
  EC50: 2100 nM
[26]
  IC50: 1100 nM
[27]
  IC50: > 100 µM
[28]
  IC50: > 100 µM
[32]
  concentration in plasma and lung as multiple of EC90: > 100 x EC90

## CC(C)CC(NC(=O)OCc1ccccc1)C(=O)NC(CC1CCNC1=O)C(O)S(=O)(=O)O (stereo not drawn) [GC376, reference compound]
[5]; Severe acute respiratory syndrome coronavirus 2, Vero C1008, 72 h, read-out: EC50, inhibition of SARS-CoV-2 viral replication
  EC50: 6 µM
[5]; [43]
  EC50: 9 µM
[33]
  IC50: 0.33 nM
[34]
  Normalized chymotrypsin activity: 1.05 and 0.8698 and 0.9664
  Protease activity in cell lysate normalised to DMSO (Figure S22D): 1.05 and 0.8698 and 0.9664
[35]
  half-life: > 240 min
[36]
  half-life: > 80 min
[37]
  half-life: > 240 min
[38]
  half-life: > 80 min
[17]
  EC50: 51 nM
[18]
  EC50: 146 nM
[39]
  solubility: ≤ 1000 µM
other
  concentrations at which turbidity was observed: 25 to 200 mM
